Here are results for four compounds from patent US12173088B2, “Anti-microbial peptides” (priority 2018, dated 2024).

The test system of data set [1] is P. aeruginosa E411-17. Description: microbe, parasite or virus in culture. In kind it is cell-based, Pseudomonas aeruginosa. An outline of the steps:
(§1)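 Broth microdilution: log-phase cultures in tryptic soy broth diluted to OD600 0.001, exposed to two-fold diluted peptides at 37° C overnight, growth read at 630 nm. Medium effects on S. aureus USA300 tested with up to 200 mM NaCl, 2 mM CaCl2, 5-10% human serum, mouse plasma, fluids or tissue homogenate supernatants.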

In data set [2] the test system is K. pneumoniae E406-17. Description: microbe, parasite or virus in culture. Type of data set: cell-based, Klebsiella pneumoniae. Put shortly:
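Broth microdilution in tryptic soy broth: log-phase cultures (OD600 ≈0.5) diluted to OD600 0.001, given two-fold peptide dilutions, incubated overnight at 37° C. Growth read at 630 nm.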

Data set [3] can be described thus: Hemolytic assay. In kind it is cell-based, human. The settings on record: human. An outline of the steps: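 Washed hRBCs (2% v/v) exposed to peptide for 1 h at 37 °C, then centrifuged and hemoglobin in supernatant read at 545 nm. Lysis normalized to Triton X-100 (2% or 1%; 100%) and PBS (0%); HL50 is the peptide concentration giving 50% lysis, and CSI is HL50/MIC.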

The subject of data set [4] is E. faecium V286-17 (VRE). Description: microbe, parasite or virus in culture. Type of data set: cell-based, Enterococcus faecium. Put shortly: as §1
Data set [5] relates to S. aureus USA300. In words: microbe, parasite or virus in culture. In kind it is cell-based, Staphylococcus aureus. Put shortly: as §1
Data set [6] relates to S. aureus M838-17 (MRSA). Description: microbe, parasite or virus in culture. Type of data set: cell-based, Staphylococcus aureus. The settings on record: for MIC: read-out: MIC S. aureus M838-17 (MRSA). Put shortly: as §1
The subject of data set [7] is E. coli E423-17. Description: microbe, parasite or virus in culture. In kind it is cell-based, Escherichia coli. Put shortly:
as §1

The subject of data set [8] is A. baumannii B26-16. In words: microbe, parasite or virus in culture. Type of data set: cell-based, Acinetobacter baumannii. Put shortly: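 Broth microdilution in tryptic soy broth: log-phase cultures diluted to 0.001 OD600 and exposed to peptide dilutions overnight at 37 °C, growth read at 630 nm. For S. aureus USA300, medium effects tested at pH 6.8, 7.2 and 8.0, with 150 mM NaCl, or with 5–10% human serum, mouse plasma or peritoneal fluid.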

The mark [9] stands for this setting: E411-17, read-out: MIC P. aeruginosa E411-17.
Where [10] appears, read: E406-17, read-out: MIC K. pneumoniae E406-17.
Where [11] appears, read: E423-17, read-out: MIC E. coli E423-17.

≈ marks a conversion by molar mass, not a printed value. Where two headings read alike, the source gives them in different places. Peptide text beside a SMILES is read from it.

Take `CC(C)C[C@H](NC(=O)[C@H](CC(C)C)NC(=O)[C@H](CCCCN)NC(=O)[C@H](CC(C)C)NC(=O)CNC(=O)[C@H](CC(C)C)NC(=O)[C@H](CO)NC(=O)[C@H](CC(C)C)NC(=O)[C@H](CC(C)C)NC(=O)[C@H](CC(C)C)NC(=O)[C@H](CCCCN)NC(=O)[C@H](CC(C)C)NC(=O)CN)C(N)=O` [DFT561, GLKLLLSLGLKLL] (H-GLKLLLSLGLKLL-NH2; N-terminus and C-terminus assumed): the MIC in data set [1] (setting [9]) was greater than 50 µM; in data set [2] (setting [10]) it was greater than 50 µM; in data set [5] (USA300) it was 1.6 µM (≈ 2.21 µg/mL); in data set [5] (USA300, pH 6.8), 3.1 µM (≈ 4.28 µg/mL); in data set [5] (USA300, pH 7.4) it was 1.6 µM (≈ 2.21 µg/mL); in data set [5] (USA300, pH 8), 1.6 µM (≈ 2.21 µg/mL). Besides, the figures for the MIC in data set [6] (M838-17) and in data set [7] (setting [11]) were 3.1 µM (≈ 4.28 µg/mL) and greater than 50 µM, respectively. This compound yielded an HC50 at 1 h in data set [3] (human red blood cells, 2% (v/v)) greater than 300 µM. Besides, the “MIC E. faecium V286-17 (VRE)” value in data set [4] (V286-17 (VRE)) fell in the range of 3.1 to 6.25 µM. The “MIC SA (S. aureus USA300)” value in data set [5] (USA300) stood at 1.6 µM (≈ 2.21 µg/mL).

For `CC(C)C[C@H](NC(=O)[C@H](Cc1c[nH]c2ccccc12)NC(=O)[C@H](Cc1c[nH]c2ccccc12)NC(=O)[C@@H](N)Cc1c[nH]c2ccccc12)C(=O)N[C@@H](CCCNC(=N)N)C(=O)N[C@@H](CCCNC(=N)N)C(=O)N[C@@H](CCCNC(=N)N)C(=O)N[C@@H](Cc1c[nH]c2ccccc12)C(N)=O` [Horine, WWWLRRRW] (H-WWWLRRRW-NH2; N-terminus and C-terminus assumed), the MIC is greater than 32 µM in data set [1] (setting [9]); greater than 32 µM in data set [2] (setting [10]); 2 µM (≈ 2.69 µg/mL) in data set [4] (V286-17 (VRE), read-out: MIC E. faecium V286-17 (VRE)); 32 µM (≈ 43 µg/mL) in data set [8] (B26-16, read-out: MIC A. baumannii B26-16); 4 µM (≈ 5.37 µg/mL) in data set [5] (USA300, read-out: MIC S. aureus USA300 (MRSA)); greater than 32 µM in data set [7] (setting [11]). Further, in data set [3], the HC50 at 1 hour was greater than 200 µM.

Consider `CC(C)[C@H](NC(=O)[C@H](Cc1c[nH]c2ccccc12)NC(=O)[C@H](Cc1c[nH]c2ccccc12)NC(=O)[C@H](Cc1c[nH]c2ccccc12)NC(=O)[C@H](Cc1c[nH]c2ccccc12)NC(=O)[C@H](CCCNC(=N)N)NC(=O)[C@H](CCCNC(=N)N)NC(=O)[C@@H](N)CCCNC(=N)N)C(N)=O` [Verine, RRRWWWWV] (H-RRRWWWWV-NH2; N-terminus and C-terminus assumed), for which the “MIC P. aeruginosa 411-17” value in data set [1] (Table 12) turned out to be 12.5 µM (≈ 16.6 µg/mL). The “MIC P. aeruginosa E411-17” value in data set [1] (Table 14) lay in the range of 4 to 8 µM. In addition, the “MIC K. pneumonia 406-17” value in data set [2] (Table 12) was 6.25 µM (≈ 8.31 µg/mL). Also, the MIC is 8 µM (≈ 10.6 µg/mL) in data set [2] (Table 14, read-out: MIC K. pneumoniae E406-17); 2 µM (≈ 2.66 µg/mL) in data set [4] (Table 14, read-out: MIC E. faecium V286-17 (VRE)); 8 µM (≈ 10.6 µg/mL) in data set [8] (Table 14, read-out: MIC A. baumannii B26-16); 2 to 4 µM in data set [5] (Table 17, strain USA300); 2 µM (≈ 2.66 µg/mL) in data set [7] (Table 14, read-out: MIC E. coli E423-17). Also, the HC50 at 1 hour in data set [3] (2% hRBCs, read-out: LC50) is greater than 200 µM. Also, the “MIC S. aureus USA300 (MRSA)” value in data set [5] (Table 14) lay in the range of 2 to 4 µM. Moreover, the “MIC S. aureus M838-17” value in data set [6] (Table 12) was found to be 3.1 µM (≈ 4.12 µg/mL).

For `CN[C@H](CC(C)C)C(=O)N[C@H]1C(=O)N[C@@H](CC(N)=O)C(=O)N[C@H]2C(=O)N[C@H]3C(=O)N[C@H](C(=O)N[C@H](C(=O)O)c4cc(O)cc(O)c4-c4cc3ccc4O)[C@H](O)c3ccc(c(Cl)c3)Oc3cc2cc(c3O[C@@H]2O[C@H](CO)[C@@H](O)[C@H](O)[C@H]2O[C@H]2C[C@](C)(N)[C@H](O)[C@H](C)O2)Oc2ccc(cc2Cl)[C@H]1O` [Vancomycin], the MIC is greater than 8 µM in data set [1] (Pseudomonas aeruginosa, E41117, read-out: MIC P. aeruginosa E411-17); greater than 8 µM in data set [2] (Klebsiella pneumoniae, E40617, read-out: MIC K. pneumoniae E406-17); no less than 12.5 µM in data set [4] (Enterococcus faecium, VRE, read-out: MIC E. faecium V286-17 (VRE), Table 7); greater than 8 µM in data set [4] (Enterococcus faecium, VRE, read-out: MIC E. faecium V286-17 (VRE), Table 14); greater than 8 µM in data set [8] (Acinetobacter baumannii, B2616, read-out: MIC A. baumannii B26-16); 1 µM (≈ 1.45 µg/mL) in data set [5] (Staphylococcus aureus, MRSA / USA300, read-out: MIC S. aureus USA300 (MRSA)). The MIC in data set [6] (Staphylococcus aureus, MRSA) is 0.78 µM (≈ 1.13 µg/mL); in data set [7] (Escherichia coli, E42317, read-out: MIC E. coli E423-17), greater than 8 µM.
